Assay results as given in patent US7491507B2, “Process for preparing peptides with anti-hypertensive properties” (Chr. Hansen A/S, priority 2002, dated 2009).

Test system: Spontaneously Hypertensive Rats (SHR)
Assay: In vivo test of anti-hypertensive properties: systolic blood pressure by plethysmography in conscious SHR after gavage
Design: species or system rat
Conditions: gavage 2 ml of product (Enalapril 20 mg/kg in milk)
Experimental: Strains were streaked on MRS agar and incubated anaerobically for 48 h at 37° C. A single colony was picked, inoculated into MRS broth and grown overnight at 37° C. Stock cultures were prepared from this overnight culture and were stored at −80° C. in 20% glycerol. The strains were precultivated in milk overnight and inoculated 1% (v/v) in fresh milk for the fermentation.
The milk was fermented with the strains of single or mixed cultures for 16 hours with an inoculation level of 1% (v/v). The total product was freeze-dried. A second fermentation, with the same conditions as the first one, was centrifuged. The pellet was discarded and the whey was filtered through a […] filter and frozen. The whey was used to solubilize the freeze-dried powder to concentrate it with a factor 5 before feeding the rats.
Spontaneously Hypertensive Rats (SHR) was obtained from IFFA CREDO (a Charles River company), Lyon, France. […]
Systolic blood pressure was determined by plethysmography in conscious SHR before as well as […] after gavages, at the different times described below. […]
Systolic blood pressure of Group 1 was determined parallel to those of groups 2 and 3 and serves as control.
The day of the gavage systolic blood pressure was determined before as well as 6 and 24 hours after gavage.

Compound: CCOC(=O)[C@H](CCc1ccccc1)N[C@@H](C)C(=O)N1CCC[C@H]1C(=O)O [Enalapril]
- variation of systolic blood pressure (5 hours after administration): −30
- variation of systolic blood pressure (24 hours after administration): −17
